The values that follow come from US11384079B2, “6-5 fused rings as C5a inhibitors” (CHEMOCENTRYX, INC., priority 2017, dated 2022).

For the assay, the target named is T1, C5aR (Homo sapiens, UniProt P21730).
T1 construct: U937 cells are a monocytic cell line which express C5aR; host or cells: U937 cells (cAMP treated) or isolated neutrophils
T1 sequence (P21730 1-350): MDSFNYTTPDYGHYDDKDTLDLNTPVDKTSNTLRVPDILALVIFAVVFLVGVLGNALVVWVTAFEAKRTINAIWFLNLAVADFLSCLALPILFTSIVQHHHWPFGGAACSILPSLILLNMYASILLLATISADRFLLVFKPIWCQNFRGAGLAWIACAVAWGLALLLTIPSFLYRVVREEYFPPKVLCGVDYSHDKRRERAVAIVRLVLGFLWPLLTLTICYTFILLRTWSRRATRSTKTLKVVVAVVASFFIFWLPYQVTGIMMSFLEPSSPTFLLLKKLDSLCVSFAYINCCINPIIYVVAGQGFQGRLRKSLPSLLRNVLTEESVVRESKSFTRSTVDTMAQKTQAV
The assay is described as follows: chemotaxis assay (C5aR mediated migration). Format: cell-based. The following applies: migration of U937 or neutrophil cells toward C5a (0.03 nM), 1.5 hours at 37° C., read-out: Mig IC50. The essentials: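 Migration of cAMP-treated U937 cells (0.5 mM overnight), or of human or murine neutrophils, toward C5a was measured through 5 μm polycarbonate filters in HBSS with 1% FBS. SDF-1α served as a specificity control. After 1.5 h at 37 °C, lower-chamber cells were counted directly or by CyQuant.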

As usually defined, the IC50 is the point on the concentration scale where inhibition reaches its midpoint.

For the molecule `CCc1cccc(CC)c1-n1nc2c(c1-c1ccc(Cl)c3[nH]cc(C)c13)CN(c1ncc(C(F)(F)F)cc1F)CC2` [Example 1.146], the IC50 was under 5 nM. For `CCc1cccc(CC)c1-n1nc2c(c1-c1ccc(C)c3[nH]ccc13)CN(c1ncc(C(C)C)cn1)CC2` [Example 1.147], the IC50 is under 5 nM. Then `CCc1cccc(CC)c1-n1nc2c(c1-c1ccc(Cl)c3[nH]ccc13)CN(c1nc(C)cc(C)n1)CC2` [Example 1.148], with under 5 nM; and `CCc1cccc(CC)c1-n1nc2c(c1-c1ccc(Cl)c3[nH]ccc13)CN(C(=O)Nc1ccccc1)CC2` [Example 1.149], with 5 to 50 nM. Then `CCc1cccc(CC)c1-n1nc2c(c1-c1c(F)cc(C)c3[nH]ccc13)CN(c1ncc(C(F)(F)F)cc1F)CC2` [Example 1.150], with under 5 nM; and `Cc1cccc(C)c1-n1nc2c(c1-c1ccc(Cl)c3[nH]ccc13)CN(c1ncc(C(C)C)cn1)CC2` [Example 1.151], with under 5 nM; and `CCc1cccc(CC)c1-n1nc2c(c1-c1ccc(Cl)c3[nH]ccc13)CN(c1ncc(C(C)C)cc1F)CC2` [Example 1.152], with under 5 nM.

As to `Cc1cccc(C)c1-n1nc2c(c1-c1ccc(Cl)c3[nH]ccc13)CN(c1ncc(C(C)C)cc1F)CC2` [Example 1.153], the IC50 lay within 5 to 50 nM.

`Cc1cnc(N2CCc3nn(-c4c(C)cccc4C)c(-c4ccc(Cl)c5[nH]ccc45)c3C2)nc1` [Example 1.154]: the IC50 was 5 to 50 nM.

On to `Cc1cccc(C)c1-n1nc2c(c1-c1ccc(Cl)c3[nH]ccc13)CN(c1ncc(Cl)cn1)CC2` [Example 1.155], for which the IC50 lay within 5 to 50 nM. Then `CCc1cccc(CC)c1-n1nc2c(c1-c1ccc(Cl)c3[nH]ccc13)CN(c1ncc(C)cn1)CC2` [Example 1.156], with under 5 nM; and `CCc1cccc(CC)c1-n1nc2c(c1-c1ccc(Cl)c3[nH]ccc13)CN(c1ncccn1)CC2` [Example 1.157], with under 5 nM. The value for `CCc1cccc(CC)c1-n1nc2c(c1-c1ccc(Cl)c3[nH]ccc13)CN(c1ncc(F)cn1)CC2` [Example 1.158] was under 5 nM; that for `CCc1cccc(CC)c1-n1nc2c(c1-c1ccc(Cl)c3[nH]ccc13)CN(c1ncc(F)cc1Cl)CC2` [Example 1.159] was under 5 nM. Then `CCc1cccc(CC)c1-n1nc2c(c1-c1ccc(Cl)c3[nH]ccc13)CN(c1ncc(Cl)cn1)CC2` [Example 1.160], with under 5 nM. As for `CCc1cccc(CC)c1-n1nc2c(c1-c1ccc(Cl)c3[nH]ccc13)CN(c1ncc(C(F)(F)F)cn1)CC2` [Example 1.161], the IC50 is under 5 nM.

As for `CCc1cccc(CC)c1-n1nc2c(c1-c1ccc(F)c3[nH]cc(Cl)c13)CN(c1ncc(C(F)(F)F)cc1F)CC2` [Example 1.162], the IC50 lay in the range of 5 to 50 nM. For the molecule `CCc1cccc(CC)c1-n1nc2c(c1-c1ccc(Cl)c3[nH]ccc13)CN(c1ccc(C(F)(F)F)cn1)CC2` [Example 1.163], the IC50 was under 5 nM.

With `CCc1cccc(CC)c1-n1nc2c(c1-c1ccc(Cl)c3[nH]ccc13)CN(c1ncc(C(C)C)cn1)CC2` [Example 1.164], the IC50 was under 5 nM. Then `CCc1cccc(CC)c1-n1nc2c(c1-c1ccc(C(C)(C)O)c3[nH]ccc13)CN(c1ncc(C(F)(F)F)cc1F)CC2` [Example 1.165], with 50 to 500 nM.

`Cc1cccc(C)c1-n1nc2c(c1-c1ccc(F)c3[nH]cc(Cl)c13)CN(c1ncc(C(F)(F)F)cc1F)CC2` [Example 1.166]: the IC50 fell in the range of 50 to 500 nM. Then `CCc1cccc(CC)c1-n1nc2c(c1-c1ccc(Cl)c3[nH]ccc13)CN(c1ncc(C(C)C)cn1)CC2` [Example 1.167], with under 5 nM. On to `CCc1cccc(CC)c1-n1nc2c(c1-c1ccc(C(N)=O)c3[nH]ccc13)CN(c1ncc(C(F)(F)F)cc1F)CC2` [Example 1.168], for which the IC50 fell in the range of 50 to 500 nM.

As for `Cc1cccc(C)c1-n1nc2c(c1-c1ccc(Cl)c3[nH]ccc13)CN(c1ncc(C(F)(F)F)cc1F)CC2` [Example 1.169], the IC50 is 5 to 50 nM.

In the case of `CCc1cccc(CC)c1-n1nc2c(c1-c1ccc(C)c3[nH]cc(Cl)c13)CN(c1ncc(C(F)(F)F)cc1F)CC2` [Example 1.170], the IC50 was under 5 nM. Consider `CCc1cccc(CC)c1-n1nc2c(c1-c1ccc(CO)c3[nH]ccc13)CN(c1ccc(C(F)(F)F)cn1)CC2` [Example 1.171], for which the IC50 is under 5 nM. As to `CCc1cccc(CC)c1-n1nc2c(c1-c1ccc(C(=O)OC)c3[nH]ccc13)CN(c1ncc(C(F)(F)F)cc1F)CC2` [Example 1.172], the IC50 is under 5 nM.

Take `CCc1cccc(CC)c1-n1nc2c(c1-c1ccc(F)c3[nH]ccc13)CN(c1cnccn1)CC2` [Example 1.173]: the IC50 lay in the range of 5 to 50 nM. Consider `CCc1cccc(CC)c1-n1nc2c(c1-c1ccc(CO)c3[nH]ccc13)CN(c1ncc(C(F)(F)F)cc1F)CC2` [Example 1.174], for which the IC50 is under 5 nM. Then `CCc1cccc(CC)c1-n1nc2c(c1-c1ccc(F)c3[nH]ccc13)CN(c1ncc(C3CC3)cc1F)CC2` [Example 1.175], with under 5 nM; and `CCc1cccc(CC)c1-n1nc2c(c1-c1ccc(F)c3[nH]ccc13)CN(c1ncc(C3CC3)cc1Cl)CC2` [Example 1.176], with under 5 nM; and `CCc1cccc(CC)c1-n1nc2c(c1-c1ccc(F)c3[nH]ccc13)CN(c1ncc(C)cn1)CC2` [Example 1.177], with under 5 nM. The value for `Cc1cccc(C)c1-n1nc2c(c1-c1ccc(F)c3[nH]ccc13)CN(c1ncc(C(F)(F)F)cc1F)CC2` [Example 1.178] was 50 to 500 nM; that for `CCc1cccc(CC)c1-n1nc2c(c1-c1ccc(F)c3[nH]ccc13)CN(c1ncc(C(F)(F)F)cn1)CC2` [Example 1.179] was under 5 nM; that for `CCc1cccc(CC)c1-n1nc2c(c1-c1ccc(F)c3[nH]ccc13)CN(c1ncc(C(C)C)cc1F)CC2` [Example 1.180] was under 5 nM. The value for `CCc1cccc(CC)c1-n1nc2c(c1-c1ccc(C)c3[nH]ccc13)CN(c1ncc(C(F)(F)F)cc1F)CC2` [Example 1.181] was under 5 nM; that for `CCc1cccc(CC)c1-n1nc2c(c1-c1c(F)cc(F)c3[nH]ccc13)CN(c1ncc(C(F)(F)F)cc1F)CC2` [Example 1.182] was 5 to 50 nM; that for `CCc1cccc(CC)c1-n1nc2c(c1-c1ccc(F)c3[nH]ccc13)CN(c1ncc(C(F)(F)F)cc1Cl)CC2` [Example 1.183] was 5 to 50 nM. As to `CCc1cccc(CC)c1-n1nc2c(c1-c1ccc(F)c3[nH]ccc13)CN(c1ncc(Cl)cn1)CC2` [Example 1.184], the IC50 was under 5 nM. `CCc1cccc(CC)c1-n1nc2c(c1-c1ccc(Cl)c3[nH]ccc13)CN(c1ncc(C(F)(F)F)cc1F)CC2` [Example 1.185]: the IC50 is under 5 nM. Then `Cc1cccc(OCC(C)C)c1-n1nc2c(c1-c1ccc3[nH]ccc3c1)CN(C(=O)NC(C)(C)C)CC2` [Example 1.186], with 50 to 500 nM; and `CCc1cccc(CC)c1-n1nc2c(c1-c1ccc(F)c3[nH]ccc13)CN(c1ncc(Cl)cc1Cl)CC2` [Example 1.187], with under 5 nM. Then `CCc1cccc(CC)c1-n1nc2c(c1-c1ccc(F)c3[nH]ccc13)CN(c1ncc(C(F)(F)F)cc1F)CC2` [Example 1.188], with under 5 nM; and `Cc1cccc(C)c1-n1nc2c(c1-c1cc(C)c3[nH]ccc3c1)CN(c1ncc(Cl)cc1Cl)CC2` [Example 1.189], with 50 to 500 nM; and `Cc1cccc(C)c1-n1nc2c(c1-c1ccc3[nH]cc(C#N)c3c1)CN(c1ncc(Cl)cc1Cl)CC2` [Example 1.190], with over 500 nM.

On to `Cc1cccc(C)c1-n1nc2c(c1-c1cc(Cl)c3[nH]ccc3c1)CN(c1ncc(Cl)cc1Cl)CC2` [Example 1.191], for which the IC50 lay in the range of 50 to 500 nM.

`Cc1cccc(C)c1-n1nc2c(c1-c1ccc3[nH]ncc3c1)CN(c1ncc(Cl)cc1Cl)CC2` [Example 1.192]: the IC50 was over 500 nM. The value for `Cc1cccc(C)c1-n1nc2c(c1-c1cc3cc[nH]c3cc1F)CN(c1ncc(Cl)cc1Cl)CC2` [Example 1.193] was 50 to 500 nM; that for `Cc1cccc(C)c1-n1nc2c(c1-c1cc(F)c3[nH]ccc3c1)CN(c1ncc(Cl)cc1Cl)CC2` [Example 1.194] was 50 to 500 nM; that for `Cc1cccc(C)c1-n1nc2c(c1-c1ccc3[nH]ccc3c1F)CN(c1ncc(Cl)cc1Cl)CC2` [Example 1.195] was 5 to 50 nM. As for `Cc1cccc(C)c1-n1nc2c(c1-c1cccc3[nH]ccc13)CN(c1ncc(Cl)cc1Cl)CC2` [Example 1.196], the IC50 lay within 5 to 50 nM. Regarding `Cc1cccc(C)c1-n1nc2c(c1-c1ccc3[nH]ccc3c1)CN(c1ncc(Cl)cc1Cl)CC2` [Example 1.197], the IC50 fell in the range of 5 to 50 nM. Turning to `Cc1cccc(OCC(C)C)c1-n1nc2c(c1-c1cccc3[nH]ccc13)CN(c1ncc(C(C)C)cc1F)CC2` [Example 1.198], the IC50 fell in the range of 5 to 50 nM. The value for `Cc1cccc(OCC(C)C)c1-n1nc2c(c1-c1ccc3[nH]ccc3c1)CN(C(C)(C)c1ccccc1)CC2` [Example 1.199] was under 5 nM. The value for `Cc1cccc(OCC(C)C)c1-n1nc2c(c1-c1ccc3[nH]ccc3c1)CN(c1ncc(Cl)cc1Cl)CC2` [Example 1.200] was under 5 nM. The value for `Cc1cccc(OCC(C)C)c1-n1nc2c(c1-c1cccc3[nH]ccc13)CN(c1ncc(Cl)cc1Cl)CC2` [Example 1.201] was 5 to 50 nM; that for `CCc1cccc(CC)c1-n1nc2c(c1-c1ccc3[nH]ccc3c1)CN(C(C)c1ccccc1C(F)(F)F)CC2` (stereo not drawn) [Example 1.202] was 5 to 50 nM.
